Reference: patent publication US6737383B1, “Herbicidal oxadiazolidines” (priority 1999, dated 2004)

Assays:
soybean = assay: Test B pre/postemergence soybean; type: in vivo, Glycine max
Method in brief: (§1)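 Response is a visual 0-to-10 score relative to untreated plants, where 0 means no effect and 10 means complete control, taken twelve to sixteen days after application. Treatments went onto soil at planting and onto foliage of 1- to 4-leaf plants, using a surfactant-containing non-phytotoxic solvent.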

cocklebur = assay: Test B pre/postemergence cocklebur; type: in vivo, Xanthium strumarium
Method in brief: as §1

sugar beet = assay: Test B pre/postemergence sugar beet; type: in vivo, Beta vulgaris
Method in brief: as §1

wild oat = assay: Test B pre/postemergence wild oat; type: in vivo, Avena fatua
Method in brief: as §1

blackgrass = assay: Test B pre/postemergence blackgrass; type: in vivo, Alopecurus myosuroides
Method in brief: as §1

smallflower flatsedge = assay: Test B flood test smallflower flatsedge; type: in vivo, Cyperus difformis
Method in brief: (§2)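 Each value is a visual injury score relative to controls, with 10 meaning complete control and 0 no effect. Evaluation took place twelve to sixteen days after the 2-leaf-stage plants were treated and kept in the greenhouse.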

surinam grass = assay: Test B pre/postemergence surinam grass; type: in vivo, Brachiaria decumbens
Method in brief: as §1

duck salad = assay: Test B flood test duck salad; type: in vivo, Heteranthera limosa
Method in brief: as §2

rice = assay: Test B flood test rice; type: in vivo, Oryza sativa
Method in brief: as §2

corn = assay: Test B pre/postemergence corn; type: in vivo, Zea mays
Method in brief: as §1

pigweed = assay: Test B pre/postemergence pigweed; type: in vivo, Amaranthus retroflexus; settings: for Redroot pigweed plant response rating: Postemergence; for Plant response rating, Redroot pigweed: Preemergence
Method in brief: as §1

crabgrass = assay: Test B pre/postemergence crabgrass; type: in vivo, Digitaria sanguinalis
Method in brief: as §1

morningglory = assay: Test B pre/postemergence morningglory; type: in vivo, Ipomoea hederacea
Method in brief: as §1

purple nutsedge = assay: Test B pre/postemergence purple nutsedge; type: in vivo, Cyperus rotundus
Method in brief: as §1

bedstraw = assay: Test B pre/postemergence bedstraw; type: in vivo, Galium aparine
Method in brief: as §1

giant foxtail = assay: Test B pre/postemergence giant foxtail; type: in vivo, Setaria faberii
Method in brief: as §1

[1] = Postemergence, Rate 62 g/ha, scale 0 to 10, 0 is no effect, 10 is complete control
[2] = Postemergence, Rate 250 g/ha, scale 0 to 10, 0 no effect, 10 complete control
[3] = Preemergence, Rate 62 g/ha, scale 0 to 10, 0 is no effect, 10 is complete control
[4] = Preemergence, Rate 125 g/ha, scale 0 to 10 (0 no effect, 10 complete control)
[5] = Preemergence, Rate 250 g/ha, scale of 0 to 10 where 0 is no effect and 10 is complete control
[6] = Preemergence, Rate 500 g/ha, scale 0 (no effect) to 10 (complete control)
[7] = Rate 125 g/ha, Postemergence, scale 0 to 10, 0 no effect, 10 complete control
[8] = Rate 500 g/ha, Postemergence, 0 to 10 scale (0 no effect, 10 complete control)
[9] = Rate 125 g/ha, Postemergence section (flood test species), scale 0 to 10, 0 no effect, 10 complete control
[10] = flood test, listed under Postemergence, Rate 250 g/ha, scale 0 to 10, 0 no effect, 10 complete control
[11] = Rate 500 g/ha, Postemergence section of Table B, 0 to 10 scale (0 no effect, 10 complete control)
[12] = Rate 62 g/ha, scale 0 to 10, 0 is no effect, 10 is complete control

SMILES: CC(C)N(C(=O)n1oc(=O)n(-c2c(Cl)cccc2Cl)c1=O)c1ccc(F)cc1 [Compound 19]
- Soybean plant response rating (soybean; [1]): 2
- Soybean plant response rating (soybean; [2]): 3
- Plant response rating, Soybean (soybean; [3]): 0
- Plant response rating, Soybean (soybean; [4]): 0
- Plant response rating, Soybean (soybean; [5]): 0
- Soybean plant response rating (soybean; [6]): 0
- Soybean plant response rating (soybean; [7]): 3
- Cocklebur plant response rating (cocklebur; [1]): 0
- Cocklebur plant response rating (cocklebur; [2]): 0
- Plant response rating, Cocklebur (cocklebur; [3]): 0
- Plant response rating, Cocklebur (cocklebur; [5]): 0
- Cocklebur plant response rating (cocklebur; [6]): 0
- Cocklebur plant response rating (cocklebur; [7]): 0
- Cocklebur plant response rating (cocklebur; [8]): 0
- Sugarbeets plant response rating (sugar beet; [1]): 0
- Sugarbeets plant response rating (sugar beet; [2]): 0
- Plant response rating, Sugarbeets (sugar beet; [3]): 0
- Plant response rating, Sugarbeets (sugar beet; [4]): 0
- Plant response rating, Sugarbeets (sugar beet; [5]): 1
- Sugarbeets plant response rating (sugar beet; [6]): 2
- Sugarbeets plant response rating (sugar beet; [7]): 0
- Wild oats plant response rating (wild oat; [1]): 0
- Wild oats plant response rating (wild oat; [2]): 0
- Plant response rating, Wild oats (wild oat; [4]): 0
- Plant response rating, Wild oats (wild oat; [5]): 0
- Wild oats plant response rating (wild oat; [6]): 0
- Wild oats plant response rating (wild oat; [7]): 0
- Blackgrass plant response rating (blackgrass; [1]): 0
- Blackgrass plant response rating (blackgrass; [2]): 0
- Plant response rating, Blackgrass (blackgrass; [3]): 0
- Plant response rating, Blackgrass (blackgrass; [4]): 2
- Plant response rating, Blackgrass (blackgrass; [5]): 2
- Blackgrass plant response rating (blackgrass; [6]): 3
- Blackgrass plant response rating (blackgrass; [7]): 0
- Blackgrass plant response rating (blackgrass; [8]): 2
- S. Flatsedge plant response rating (smallflower flatsedge; [1]): 0
- S. Flatsedge plant response rating (smallflower flatsedge; [9]): 0
- S. Flatsedge plant response rating (smallflower flatsedge; [10]): 0
- B. signalgrass plant response rating (surinam grass; [1]): 0
- B. signalgrass plant response rating (surinam grass; [2]): 0
- Plant response rating, B. signalgrass (surinam grass; [3]): 0
- Plant response rating, B. signalgrass (surinam grass; [4]): 2
- Plant response rating, B. signalgrass (surinam grass; [5]): 2
- B. signalgrass plant response rating (surinam grass; [6]): 2
- B. signalgrass plant response rating (surinam grass; [7]): 0
- B. signalgrass plant response rating (surinam grass; [8]): 0
- Ducksalad plant response rating (duck salad; [1]): 0
- Ducksalad plant response rating (duck salad; [9]): 0
- Ducksalad plant response rating (duck salad; [11]): 0
- Ducksalad plant response rating (duck salad; [10]): 0
- Rice plant response rating (rice; [1]): 0
- Rice plant response rating (rice; [9]): 0
- Rice plant response rating (rice; [11]): 0
- Rice plant response rating (rice; [10]): 0
- Corn plant response rating (corn; [1]): 0
- Corn plant response rating (corn; [2]): 0
- Plant response rating, Corn (corn; [3]): 0
- Plant response rating, Corn (corn; [4]): 0
- Plant response rating, Corn (corn; [5]): 0
- Corn plant response rating (corn; [6]): 0
- Corn plant response rating (corn; [7]): 0
- Corn plant response rating (corn; [8]): 0
- Redroot pigweed plant response rating (pigweed; [12]): 0
- Redroot pigweed plant response rating (pigweed; Rate 250 g/ha, scale 0 to 10, 0 no effect, 10 complete control): 2
- Plant response rating, Redroot pigweed (pigweed; [12]): 0
- Plant response rating, Redroot pigweed (pigweed; Rate 125 g/ha, scale 0 to 10 (0 no effect, 10 complete control)): 0
- Plant response rating, Redroot pigweed (pigweed; Rate 250 g/ha, scale of 0 to 10 where 0 is no effect and 10 is complete control): 2
- Redroot pigweed plant response rating (pigweed; Rate 125 g/ha, scale 0 to 10, 0 no effect, 10 complete control): 0
- Redroot pigweed plant response rating (pigweed; Rate 500 g/ha, 0 to 10 scale (0 no effect, 10 complete control)): 5
- Crabgrass plant response rating (crabgrass; [1]): 0
- Crabgrass plant response rating (crabgrass; [2]): 0
- Plant response rating, Crabgrass (crabgrass; [3]): 3
- Plant response rating, Crabgrass (crabgrass; [4]): 5
- Plant response rating, Crabgrass (crabgrass; [5]): 7
- Crabgrass plant response rating (crabgrass; [6]): 10
- Crabgrass plant response rating (crabgrass; [7]): 0
- Morningglory plant response rating (morningglory; [1]): 0
- Morningglory plant response rating (morningglory; [2]): 0
- Plant response rating, Morningglory (morningglory; [3]): 0
- Plant response rating, Morningglory (morningglory; [4]): 0
- Plant response rating, Morningglory (morningglory; [5]): 0
- Morningglory plant response rating (morningglory; [6]): 0
- Morningglory plant response rating (morningglory; [7]): 0
- Morningglory plant response rating (morningglory; [8]): 2
- Nutsedge plant response rating (purple nutsedge; [1]): 0
- Nutsedge plant response rating (purple nutsedge; [2]): 0
- Plant response rating, Nutsedge (purple nutsedge; [3]): 0
- Plant response rating, Nutsedge (purple nutsedge; [4]): 0
- Plant response rating, Nutsedge (purple nutsedge; [5]): 0
- Nutsedge plant response rating (purple nutsedge; [6]): 0
- Nutsedge plant response rating (purple nutsedge; [7]): 0
- Nutsedge plant response rating (purple nutsedge; [8]): 0
- Bedstraw plant response rating (bedstraw; [1]): 2
- Bedstraw plant response rating (bedstraw; [2]): 7
- Plant response rating, Bedstraw (bedstraw; [3]): 0
- Plant response rating, Bedstraw (bedstraw; [4]): 0
- Plant response rating, Bedstraw (bedstraw; [5]): 0
- Bedstraw plant response rating (bedstraw; [6]): 0
- Bedstraw plant response rating (bedstraw; [7]): 6
- Bedstraw plant response rating (bedstraw; [8]): 8
- Giant foxtail plant response rating (giant foxtail; [1]): 0
- Giant foxtail plant response rating (giant foxtail; [2]): 0
- Plant response rating, Giant foxtail (giant foxtail; [3]): 0
- Plant response rating, Giant foxtail (giant foxtail; [4]): 2
- Plant response rating, Giant foxtail (giant foxtail; [5]): 4
- Giant foxtail plant response rating (giant foxtail; [6]): 5
- Giant foxtail plant response rating (giant foxtail; [7]): 0
- Giant foxtail plant response rating (giant foxtail; [8]): 1
